# Assay results from ChEMBL document CHEMBL2434948, “Discovery, synthesis, and characterization of an orally bioavailable, brain penetrant inhibitor of mixed lineage kinase 3” (J Med Chem, 2013).
# Activity calls are given as the source filed them. The calls are words filed in the database; no cut-off is given here.
# Columns and labels:
# [1] = target: Inhibitor of nuclear factor kappa-B kinase subunit alpha (Homo sapiens) (UniProt O15111); assay: Inhibition of human wild type IKKalpha at 1 uM by qPCR analysis relative to control
# Chain of Inhibitor of nuclear factor kappa-B kinase subunit alpha (Homo sapiens) (O15111 whole entry): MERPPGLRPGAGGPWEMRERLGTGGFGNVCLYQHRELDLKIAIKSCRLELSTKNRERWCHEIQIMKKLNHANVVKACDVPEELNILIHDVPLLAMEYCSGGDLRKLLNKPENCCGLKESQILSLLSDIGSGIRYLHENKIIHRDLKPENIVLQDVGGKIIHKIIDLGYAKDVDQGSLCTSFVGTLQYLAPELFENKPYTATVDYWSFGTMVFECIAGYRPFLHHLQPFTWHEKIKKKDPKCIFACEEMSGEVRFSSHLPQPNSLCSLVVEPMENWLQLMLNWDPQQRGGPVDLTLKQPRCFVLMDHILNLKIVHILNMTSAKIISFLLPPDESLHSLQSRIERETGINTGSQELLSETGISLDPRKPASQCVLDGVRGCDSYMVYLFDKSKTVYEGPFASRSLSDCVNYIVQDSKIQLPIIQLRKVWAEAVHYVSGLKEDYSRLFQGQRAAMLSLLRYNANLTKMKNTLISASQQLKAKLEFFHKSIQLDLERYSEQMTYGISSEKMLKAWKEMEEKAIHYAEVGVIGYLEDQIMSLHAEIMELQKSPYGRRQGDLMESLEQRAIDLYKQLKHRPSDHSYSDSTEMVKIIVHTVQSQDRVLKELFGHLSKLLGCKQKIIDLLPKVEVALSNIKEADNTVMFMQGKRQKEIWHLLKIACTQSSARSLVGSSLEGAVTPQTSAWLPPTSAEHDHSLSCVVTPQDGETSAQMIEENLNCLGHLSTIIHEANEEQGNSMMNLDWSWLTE
# [2] = target: Non-receptor tyrosine-protein kinase TYK2 (Homo sapiens) (UniProt P29597); assay: Inhibition of human wild type TYK2 at 1 uM by qPCR analysis relative to control
# Chain of Non-receptor tyrosine-protein kinase TYK2 (Homo sapiens) (P29597 whole entry): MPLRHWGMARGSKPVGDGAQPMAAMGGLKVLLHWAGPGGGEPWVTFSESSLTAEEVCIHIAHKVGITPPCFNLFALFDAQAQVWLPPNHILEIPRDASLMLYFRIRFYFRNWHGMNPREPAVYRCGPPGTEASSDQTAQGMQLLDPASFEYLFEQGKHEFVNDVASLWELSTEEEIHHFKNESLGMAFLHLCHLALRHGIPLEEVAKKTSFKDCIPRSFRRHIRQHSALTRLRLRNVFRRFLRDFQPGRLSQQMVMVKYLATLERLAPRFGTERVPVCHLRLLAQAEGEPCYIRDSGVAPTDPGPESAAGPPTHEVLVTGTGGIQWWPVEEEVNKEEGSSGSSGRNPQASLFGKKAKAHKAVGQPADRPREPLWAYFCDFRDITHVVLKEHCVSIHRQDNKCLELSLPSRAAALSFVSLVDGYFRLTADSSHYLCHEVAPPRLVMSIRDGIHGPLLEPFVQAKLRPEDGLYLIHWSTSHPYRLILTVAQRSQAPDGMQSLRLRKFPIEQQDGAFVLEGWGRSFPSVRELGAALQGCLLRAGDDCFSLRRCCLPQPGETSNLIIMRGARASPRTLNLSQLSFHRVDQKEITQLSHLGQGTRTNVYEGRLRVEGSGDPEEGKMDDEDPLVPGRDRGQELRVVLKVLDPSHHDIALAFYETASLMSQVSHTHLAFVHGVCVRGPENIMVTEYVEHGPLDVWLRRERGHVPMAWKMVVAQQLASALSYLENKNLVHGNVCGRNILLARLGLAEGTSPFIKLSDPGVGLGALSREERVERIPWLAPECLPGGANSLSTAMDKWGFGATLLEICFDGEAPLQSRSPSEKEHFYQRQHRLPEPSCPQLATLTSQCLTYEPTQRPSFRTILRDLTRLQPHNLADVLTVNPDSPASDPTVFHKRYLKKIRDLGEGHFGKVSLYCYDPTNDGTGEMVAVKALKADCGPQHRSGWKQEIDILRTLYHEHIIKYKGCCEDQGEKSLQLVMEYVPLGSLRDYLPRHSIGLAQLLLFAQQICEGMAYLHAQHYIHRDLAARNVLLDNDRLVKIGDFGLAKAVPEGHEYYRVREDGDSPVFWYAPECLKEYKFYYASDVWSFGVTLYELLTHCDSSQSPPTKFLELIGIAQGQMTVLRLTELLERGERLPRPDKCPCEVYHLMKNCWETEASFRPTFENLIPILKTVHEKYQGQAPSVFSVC
# [3] = target: Mitogen-activated protein kinase kinase kinase 2 (Homo sapiens, UniProt Q9Y2U5)
# Chain of Mitogen-activated protein kinase kinase kinase 2 (Q9Y2U5 whole entry): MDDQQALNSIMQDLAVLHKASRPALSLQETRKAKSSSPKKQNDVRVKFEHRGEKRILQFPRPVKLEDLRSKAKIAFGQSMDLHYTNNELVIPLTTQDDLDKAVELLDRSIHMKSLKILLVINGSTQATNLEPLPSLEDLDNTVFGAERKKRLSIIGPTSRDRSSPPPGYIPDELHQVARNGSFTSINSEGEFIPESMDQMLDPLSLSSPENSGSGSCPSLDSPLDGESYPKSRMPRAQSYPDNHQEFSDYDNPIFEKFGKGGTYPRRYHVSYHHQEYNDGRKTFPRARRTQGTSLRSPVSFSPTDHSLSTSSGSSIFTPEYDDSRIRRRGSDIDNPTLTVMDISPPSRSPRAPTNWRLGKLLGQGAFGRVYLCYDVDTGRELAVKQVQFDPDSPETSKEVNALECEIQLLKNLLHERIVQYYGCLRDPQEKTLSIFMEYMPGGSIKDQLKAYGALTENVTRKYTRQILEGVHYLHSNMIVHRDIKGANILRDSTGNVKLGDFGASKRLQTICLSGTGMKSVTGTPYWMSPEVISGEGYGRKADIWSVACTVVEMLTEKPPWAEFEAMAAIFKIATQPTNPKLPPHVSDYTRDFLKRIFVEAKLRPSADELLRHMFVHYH
# Description: Inhibition of wild type human MEKK2 by high throughput ATP-[33P] radiolabeled assay
# [4] = target: Mitogen-activated protein kinase kinase kinase 11 (Homo sapiens, UniProt Q16584); conditions: 300 nM
# Chain of Mitogen-activated protein kinase kinase kinase 11 (Q16584 whole entry, looked up): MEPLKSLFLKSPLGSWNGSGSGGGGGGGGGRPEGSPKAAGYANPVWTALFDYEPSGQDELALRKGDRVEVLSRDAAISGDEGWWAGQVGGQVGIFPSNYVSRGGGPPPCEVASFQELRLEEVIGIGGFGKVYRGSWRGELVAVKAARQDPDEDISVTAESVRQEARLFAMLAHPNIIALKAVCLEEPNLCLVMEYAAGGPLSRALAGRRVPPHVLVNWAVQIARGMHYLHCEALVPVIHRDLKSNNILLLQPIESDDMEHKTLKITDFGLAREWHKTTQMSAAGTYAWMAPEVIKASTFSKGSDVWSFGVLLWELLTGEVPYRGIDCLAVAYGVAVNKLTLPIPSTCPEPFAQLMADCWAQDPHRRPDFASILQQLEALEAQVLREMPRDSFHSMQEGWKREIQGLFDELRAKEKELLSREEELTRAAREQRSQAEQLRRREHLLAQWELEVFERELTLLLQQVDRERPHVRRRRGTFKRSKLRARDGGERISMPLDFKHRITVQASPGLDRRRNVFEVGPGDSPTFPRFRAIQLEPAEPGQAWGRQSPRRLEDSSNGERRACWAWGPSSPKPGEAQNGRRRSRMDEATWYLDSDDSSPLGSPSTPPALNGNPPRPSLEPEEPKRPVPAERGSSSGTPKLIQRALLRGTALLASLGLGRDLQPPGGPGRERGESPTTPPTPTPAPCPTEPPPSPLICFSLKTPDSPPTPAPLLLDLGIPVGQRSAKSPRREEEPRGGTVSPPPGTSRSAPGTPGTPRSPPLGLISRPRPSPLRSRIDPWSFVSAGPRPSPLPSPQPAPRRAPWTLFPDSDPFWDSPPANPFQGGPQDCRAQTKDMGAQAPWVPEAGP
# [5] = target: Mitogen-activated protein kinase kinase kinase kinase 4 (Homo sapiens) (UniProt O95819); assay: Binding affinity to human wild type MAP4K4 at 1 uM by qPCR analysis
# [6] = target: Dual specificity protein kinase CLK4 (Homo sapiens) (UniProt Q9HAZ1); assay: Inhibition of human wild type CLK4 at 1 uM by qPCR analysis relative to control
# Chain of Dual specificity protein kinase CLK4 (Homo sapiens) (Q9HAZ1 whole entry, looked up): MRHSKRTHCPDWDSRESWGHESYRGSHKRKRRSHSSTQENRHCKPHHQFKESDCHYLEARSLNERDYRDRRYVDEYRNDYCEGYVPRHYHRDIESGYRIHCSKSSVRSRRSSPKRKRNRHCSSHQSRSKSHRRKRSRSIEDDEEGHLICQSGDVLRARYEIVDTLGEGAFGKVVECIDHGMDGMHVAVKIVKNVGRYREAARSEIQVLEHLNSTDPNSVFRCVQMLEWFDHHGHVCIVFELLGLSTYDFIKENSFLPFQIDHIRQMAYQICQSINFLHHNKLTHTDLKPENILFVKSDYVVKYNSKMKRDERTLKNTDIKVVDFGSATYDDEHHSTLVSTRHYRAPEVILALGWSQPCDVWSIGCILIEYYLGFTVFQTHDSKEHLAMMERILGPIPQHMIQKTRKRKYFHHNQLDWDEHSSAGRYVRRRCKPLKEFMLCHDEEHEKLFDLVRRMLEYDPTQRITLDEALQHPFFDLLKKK
structure (smiles),measurement,setting,value
CN1CCN(Cc2ccc(-c3cnc4[nH]cc(-c5ccc6[nH]ccc6c5)c4c3)cc2)CC1,inhibition,[1],> 90%
same,inhibition,[2],> 90%
same,IC50,[3],661 nM
same,inhibition,[4],> 50%
same,inhibition,[5],Active
same,inhibition,[6],> 90%
